Test results taken from PubChem BioAssay AID1918999 (Molecular Pharmacology Branch, DTP, NCI, 2023).
Several values for one entry are separate records, joined by “and”; a condition that tells them apart may be missing. Equal entries are not always repeated. Blank lines part the entries; values can stand above or below the compound they belong to.

Test system: 556581-035-R-J1-PDC complex spheroid growth
Assay: Anticancer human tumor 556581-035-R-J1-PDC patient-derived ovarian carcinoma cell line growth inhibition [AhR]
Conditions: for viability, T/C: stronger effect = lower value
Procedure, shortened: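 Agents were dosed in half-log steps down from roughly clinical Cmax, or from 10 microM where Cmax was unknown, alone and with AhR antagonists. Read-out: percent test/control growth of tumor spheroids containing HUVEC and MSC stromal cells.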

[1] = curve of first compound, second compound 0.1 µM
[2] = curve of first compound, second compound 0.316 µM
[3] = curve of first compound, second compound 1 µM
[4] = curve of first compound, second compound 3.16 µM
[5] = curve of first compound, second compound 10 µM
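Throughout, for viability, T/C: compound exposure lasted 7 days; 100% = DMSO vehicle control growth.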

IC50 [1]: 21.2 nM
IC50 [2]: 17 nM
IC50 [3]: 18.8 nM
IC50 [4]: 20.5 nM
IC50 [5]: 22.1 nM
SMILES: CCc1c2c(nc3ccc(O)cc13)-c1cc3c(c(=O)n1C2)COC(=O)[C@]3(O)CC + Cc1ccccc1N=Nc1ccc(NC(=O)c2ccnn2C)c(C)c1
viability, T/C (second compound 0.1 µM, first compound 0.000949 µM): 97.1%
viability, T/C (second compound 0.1 µM, first compound 0.003 µM): 87.2%
viability, T/C (second compound 0.1 µM, first compound 0.00949 µM): 64.8%
viability, T/C (second compound 0.1 µM, first compound 0.03 µM): 42%
viability, T/C (second compound 0.1 µM, first compound 0.0949 µM): 27.1%
viability, T/C (second compound 0.1 µM, first compound 0.3 µM): 12.8%
viability, T/C (second compound 0.316 µM, first compound 0.000949 µM): 98.1%
viability, T/C (second compound 0.316 µM, first compound 0.003 µM): 86.4%
viability, T/C (second compound 0.316 µM, first compound 0.00949 µM): 64.3%
viability, T/C (second compound 0.316 µM, first compound 0.03 µM): 36.5%
viability, T/C (second compound 0.316 µM, first compound 0.0949 µM): 18.3%
viability, T/C (second compound 0.316 µM, first compound 0.3 µM): 12.7%
viability, T/C (second compound 1 µM, first compound 0.000949 µM): 98.8%
viability, T/C (second compound 1 µM, first compound 0.003 µM): 82.5%
viability, T/C (second compound 1 µM, first compound 0.00949 µM): 64.1%
viability, T/C (second compound 1 µM, first compound 0.03 µM): 41.5%
viability, T/C (second compound 1 µM, first compound 0.0949 µM): 23.7%
viability, T/C (second compound 1 µM, first compound 0.3 µM): 16.7%
viability, T/C (second compound 3.16 µM, first compound 0.000949 µM): 84%
viability, T/C (second compound 3.16 µM, first compound 0.003 µM): 86.5%
viability, T/C (second compound 3.16 µM, first compound 0.00949 µM): 74.6%
viability, T/C (second compound 3.16 µM, first compound 0.03 µM): 37.2%
viability, T/C (second compound 3.16 µM, first compound 0.0949 µM): 20.7%
viability, T/C (second compound 3.16 µM, first compound 0.3 µM): 14.1%
viability, T/C (second compound 10 µM, first compound 0.000949 µM): 94.5%
viability, T/C (second compound 10 µM, first compound 0.003 µM): 88.3%
viability, T/C (second compound 10 µM, first compound 0.00949 µM): 72.9%
viability, T/C (second compound 10 µM, first compound 0.03 µM): 40.8%
viability, T/C (second compound 10 µM, first compound 0.0949 µM): 23.2%
viability, T/C (second compound 10 µM, first compound 0.3 µM): 14.2%

IC50 (curve of compound): 1860 nM and 2090 nM and 887 nM
SMILES: Nc1ccccc1NC(=O)c1ccc(CNC(=O)OCc2cccnc2)cc1
viability, T/C (compound 0.0316 µM): 107% and 100% and 98.1%
viability, T/C (compound 0.1 µM): 90.8% and 105% and 99%
viability, T/C (compound 0.316 µM): 90.4% and 74.8% and 71.6%
viability, T/C (compound 1 µM): 63.6% and 66.1% and 48.9%
viability, T/C (compound 3.16 µM): 37.2% and 42.8% and 26.6%
viability, T/C (compound 10 µM): 19.1% and 17% and 18.4%

IC50 [1]: 3120 nM
IC50 [2]: 7280 nM
IC50 [3]: 4200 nM
IC50 [4]: 6930 nM
IC50 [5]: 9850 nM
SMILES: COc1ccc([C@@H](O)c2cc(-c3ncnc4cc(N5CCOCC5)ccc34)c(F)cc2Cl)nn1 + Cc1cncc(-c2nc(NCCc3c[nH]c4ccccc34)c3ncn(C(C)C)c3n2)c1
viability, T/C (second compound 0.1 µM, first compound 0.0316 µM): 113%
viability, T/C (second compound 0.1 µM, first compound 0.1 µM): 114%
viability, T/C (second compound 0.1 µM, first compound 0.316 µM): 108%
viability, T/C (second compound 0.1 µM, first compound 1 µM): 72.2%
viability, T/C (second compound 0.1 µM, first compound 3.16 µM): 51.4%
viability, T/C (second compound 0.1 µM, first compound 10 µM): 45.6%
viability, T/C (second compound 0.316 µM, first compound 0.0316 µM): 110%
viability, T/C (second compound 0.316 µM, first compound 0.1 µM): 105%
viability, T/C (second compound 0.316 µM, first compound 0.316 µM): 102%
viability, T/C (second compound 0.316 µM, first compound 1 µM): 77.8%
viability, T/C (second compound 0.316 µM, first compound 3.16 µM): 60.8%
viability, T/C (second compound 0.316 µM, first compound 10 µM): 45.8%
viability, T/C (second compound 1 µM, first compound 0.0316 µM): 111%
viability, T/C (second compound 1 µM, first compound 0.1 µM): 112%
viability, T/C (second compound 1 µM, first compound 0.316 µM): 116%
viability, T/C (second compound 1 µM, first compound 1 µM): 87.9%
viability, T/C (second compound 1 µM, first compound 3.16 µM): 53.8%
viability, T/C (second compound 1 µM, first compound 10 µM): 42.5%
viability, T/C (second compound 3.16 µM, first compound 0.0316 µM): 103%
viability, T/C (second compound 3.16 µM, first compound 0.1 µM): 113%
viability, T/C (second compound 3.16 µM, first compound 0.316 µM): 88.5%
viability, T/C (second compound 3.16 µM, first compound 1 µM): 82.6%
viability, T/C (second compound 3.16 µM, first compound 3.16 µM): 54.2%
viability, T/C (second compound 3.16 µM, first compound 10 µM): 47.8%
viability, T/C (second compound 10 µM, first compound 0.0316 µM): 82.2%
viability, T/C (second compound 10 µM, first compound 0.1 µM): 85.7%
viability, T/C (second compound 10 µM, first compound 0.316 µM): 89.1%
viability, T/C (second compound 10 µM, first compound 1 µM): 74.8%
viability, T/C (second compound 10 µM, first compound 3.16 µM): 61.5%
viability, T/C (second compound 10 µM, first compound 10 µM): 49.5%
